Test results taken from paper PMC3070202 (Biochemistry, 2010).

Assays:
[1] = biological target: T1, human pancreas-specific protein disulfide isomerase (PDIp) (Homo sapiens, UniProt Q13087); assay: [3H]E2 saturation radioligand binding with Scatchard plot
T1 sequence (Q13087 22-525): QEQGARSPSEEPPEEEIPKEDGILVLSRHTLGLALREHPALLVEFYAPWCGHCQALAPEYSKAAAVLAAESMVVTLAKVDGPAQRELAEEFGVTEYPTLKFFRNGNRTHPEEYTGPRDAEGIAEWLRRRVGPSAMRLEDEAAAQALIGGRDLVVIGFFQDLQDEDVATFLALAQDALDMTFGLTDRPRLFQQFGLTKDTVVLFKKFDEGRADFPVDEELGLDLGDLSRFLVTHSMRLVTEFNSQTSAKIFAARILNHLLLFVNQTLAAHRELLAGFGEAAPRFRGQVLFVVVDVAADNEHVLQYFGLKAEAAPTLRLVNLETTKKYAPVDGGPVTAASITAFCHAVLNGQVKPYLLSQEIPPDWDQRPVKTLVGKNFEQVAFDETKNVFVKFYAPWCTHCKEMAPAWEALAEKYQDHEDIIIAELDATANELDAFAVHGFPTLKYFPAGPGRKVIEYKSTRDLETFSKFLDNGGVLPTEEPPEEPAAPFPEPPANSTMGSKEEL

[2] = biological target: T2, human pancreas-specific protein disulfide isomerase (PDIp) (Homo sapiens, UniProt Q13087, Q265L); assay: [3H]E2 saturation radioligand binding
T2 sequence (Q13087 153-366 Q265L limits assumed): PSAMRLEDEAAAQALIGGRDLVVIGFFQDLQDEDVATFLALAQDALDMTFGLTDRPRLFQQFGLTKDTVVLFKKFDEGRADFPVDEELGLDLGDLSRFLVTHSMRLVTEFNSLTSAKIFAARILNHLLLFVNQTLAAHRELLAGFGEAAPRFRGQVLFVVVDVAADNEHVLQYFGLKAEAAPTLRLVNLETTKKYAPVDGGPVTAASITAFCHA

[3] = biological target: T1, human pancreas-specific protein disulfide isomerase (PDIp); assay: competition with [3H]E2 radioligand binding at […]

Compound | Kd [1] | Kd [2] | competition with [3H]E2 radioligand binding at 10 μM [3]
C[C@]12CC[C@@H]3c4ccc(O)cc4CC[C@H]3[C@@H]1CC[C@@H]2O [E2, Estradiol] | ~170 nM | 185 ± 8 nM | 
C[C@]12CC[C@@H]3c4ccc(O)cc4CC[C@H]3[C@@H]1C[C@@H](O)[C@@H]2O [E3] |  |  | could efficiently compete with [^3H]E2 for binding to the b-b′ fragment or the full-length PDIp
